Test results reported in PubChem BioAssay AID1963825 (Molecular Pharmacology Branch, DTP, NCI, 2024).

Test: Anticancer human tumor 997537-175-T-J1-PDC patient-derived colon adenocarcinoma cell line growth inhibition [POLQ]
Details: 997537-175-T-J1-PDC complex spheroid viability, combination with POLQ inhibitors; for IC50: curve of first compound; for viability, T/C: stronger effect = lower value
How it was run: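 Growth inhibition in 3D: complex spheroids (tumor PDC, HUVEC, MSC) treated with POLQ inhibitor combinations; where Cmax unknown, highest tested concentration 10 microM, except SN-38 at 1 microM.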

[1] = second compound 0.0316 µM, first compound 0.0316 µM
[2] = second compound 0.0316 µM, first compound 0.1 µM
[3] = second compound 0.0316 µM, first compound 0.316 µM
[4] = second compound 0.0316 µM, first compound 1 µM
[5] = second compound 0.0316 µM, first compound 3.16 µM
[6] = second compound 0.0316 µM, first compound 10 µM
[7] = second compound 0.1 µM, first compound 0.0316 µM
[8] = second compound 0.1 µM, first compound 0.1 µM
[9] = second compound 0.1 µM, first compound 0.316 µM
[10] = second compound 0.1 µM, first compound 1 µM
[11] = second compound 0.1 µM, first compound 3.16 µM
[12] = second compound 0.1 µM, first compound 10 µM
[13] = second compound 0.316 µM, first compound 0.0316 µM
[14] = second compound 0.316 µM, first compound 0.1 µM
[15] = second compound 0.316 µM, first compound 0.316 µM
[16] = second compound 0.316 µM, first compound 1 µM
[17] = second compound 0.316 µM, first compound 3.16 µM
[18] = second compound 0.316 µM, first compound 10 µM
[19] = second compound 1 µM, first compound 0.0316 µM
[20] = second compound 1 µM, first compound 0.1 µM
[21] = second compound 1 µM, first compound 0.316 µM
[22] = second compound 1 µM, first compound 1 µM
[23] = second compound 1 µM, first compound 3.16 µM
[24] = second compound 1 µM, first compound 10 µM
[25] = second compound 3.16 µM, first compound 0.0316 µM
[26] = second compound 3.16 µM, first compound 0.1 µM
[27] = second compound 3.16 µM, first compound 0.316 µM
[28] = second compound 3.16 µM, first compound 1 µM
[29] = second compound 3.16 µM, first compound 3.16 µM
[30] = second compound 3.16 µM, first compound 10 µM
[31] = second compound 10 µM, first compound 0.0316 µM
[32] = second compound 10 µM, first compound 0.1 µM
[33] = second compound 10 µM, first compound 0.316 µM
[34] = second compound 10 µM, first compound 1 µM
[35] = second compound 10 µM, first compound 3.16 µM
[36] = second compound 10 µM, first compound 10 µM
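Also: luminescence signal used as a surrogate for viable cells; spheroids exposed to drugs for seven days before readout.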

## C=CC(=O)N1CCN(c2nc(=O)n(-c3c(C)ccnc3C(C)C)c3nc(-c4c(O)cccc4F)c(F)cc23)C(C)C1 (stereo not given) + Nc1ccc(C#CCN(C(=O)Cc2ncc(C(F)(F)F)cc2C(F)(F)F)c2ccc(F)cc2)nn1
Second compound 0.0316 µM
  IC50: > 10 µM
Second compound 0.1 µM
  IC50: > 10 µM
Second compound 0.316 µM
  IC50: > 10 µM
Second compound 1 µM
  IC50: > 10 µM
Second compound 3.16 µM
  IC50: > 10 µM
Second compound 10 µM
  IC50: > 10 µM
[1]
  viability, T/C: 106%
[2]
  viability, T/C: 97.1%
[3]
  viability, T/C: 95.4%
[4]
  viability, T/C: 108%
[5]
  viability, T/C: 93.8%
[6]
  viability, T/C: 100%
[7]
  viability, T/C: 103%
[8]
  viability, T/C: 91.1%
[9]
  viability, T/C: 102%
[10]
  viability, T/C: 96.7%
[11]
  viability, T/C: 111%
[12]
  viability, T/C: 107%
[13]
  viability, T/C: 96.6%
[14]
  viability, T/C: 102%
[15]
  viability, T/C: 103%
[16]
  viability, T/C: 101%
[17]
  viability, T/C: 90.9%
[18]
  viability, T/C: 94%
[19]
  viability, T/C: 102%
[20]
  viability, T/C: 111%
[21]
  viability, T/C: 109%
[22]
  viability, T/C: 97.2%
[23]
  viability, T/C: 96.9%
[24]
  viability, T/C: 97.6%
[25]
  viability, T/C: 96.3%
[26]
  viability, T/C: 106%
[27]
  viability, T/C: 103%
[28]
  viability, T/C: 96.8%
[29]
  viability, T/C: 106%
[30]
  viability, T/C: 98.2%
[31]
  viability, T/C: 101%
[32]
  viability, T/C: 106%
[33]
  viability, T/C: 104%
[34]
  viability, T/C: 95.3%
[35]
  viability, T/C: 97.6%
[36]
  viability, T/C: 90.8%

## CC(C)n1c(=O)n(C)c2cnc3cc(F)c(-c4ccc(OCCCN5CCCCC5)nc4)cc3c21 + Cc1cccc(N(C)C(=O)C2C(O)CCN2c2nc(C)cc(C(F)(F)F)c2C#N)c1
Second compound 0.0316 µM
  IC50: > 10 µM
Second compound 0.1 µM
  IC50: > 10 µM
Second compound 0.316 µM
  IC50: > 10 µM
Second compound 1 µM
  IC50: > 10 µM
Second compound 3.16 µM
  IC50: > 10 µM
Second compound 10 µM
  IC50: > 10 µM
[1]
  viability, T/C: 94.2%
[2]
  viability, T/C: 91.7%
[3]
  viability, T/C: 105%
[4]
  viability, T/C: 97.5%
[5]
  viability, T/C: 98.7%
[6]
  viability, T/C: 82.7%
[7]
  viability, T/C: 96.7%
[8]
  viability, T/C: 106%
[9]
  viability, T/C: 90.8%
[10]
  viability, T/C: 98.6%
[11]
  viability, T/C: 103%
[12]
  viability, T/C: 81.3%
[13]
  viability, T/C: 103%
[14]
  viability, T/C: 99.9%
[15]
  viability, T/C: 105%
[16]
  viability, T/C: 103%
[17]
  viability, T/C: 90.2%
[18]
  viability, T/C: 87.7%
[19]
  viability, T/C: 87.2%
[20]
  viability, T/C: 102%
[21]
  viability, T/C: 92.5%
[22]
  viability, T/C: 86%
[23]
  viability, T/C: 96.8%
[24]
  viability, T/C: 91.2%
[25]
  viability, T/C: 87.1%
[26]
  viability, T/C: 96.3%
[27]
  viability, T/C: 90.2%
[28]
  viability, T/C: 80%
[29]
  viability, T/C: 98.8%
[30]
  viability, T/C: 73.6%
[31]
  viability, T/C: 99.6%
[32]
  viability, T/C: 101%
[33]
  viability, T/C: 86.8%
[34]
  viability, T/C: 83.8%
[35]
  viability, T/C: 91.8%
[36]
  viability, T/C: 76.6%

## C#Cc1c(F)ccc2cc(O)cc(-c3ncc4c(N5CC6CCC(C5)N6)nc(OCC56CCCN5CC(F)C6)nc4c3F)c12 (stereo not given) + COC1C(OC(N)=O)C(O)C(Oc2ccc3c(O)c(NC(=O)c4ccc(O)c(CC=C(C)C)c4)c(=O)oc3c2C)OC1(C)C
Second compound 0.0316 µM
  IC50: > 10 µM
Second compound 0.1 µM
  IC50: > 10 µM
Second compound 0.316 µM
  IC50: > 10 µM
Second compound 1 µM
  IC50: > 10 µM
Second compound 3.16 µM
  IC50: > 10 µM
Second compound 10 µM
  IC50: > 10 µM
[1]
  viability, T/C: 98.8%
[2]
  viability, T/C: 111%
[3]
  viability, T/C: 103%
[4]
  viability, T/C: 108%
[5]
  viability, T/C: 112%
[6]
  viability, T/C: 107%
[7]
  viability, T/C: 119%
[8]
  viability, T/C: 104%
[9]
  viability, T/C: 105%
[10]
  viability, T/C: 99%
[11]
  viability, T/C: 123%
[12]
  viability, T/C: 103%
[13]
  viability, T/C: 108%
[14]
  viability, T/C: 116%
[15]
  viability, T/C: 97.9%
[16]
  viability, T/C: 104%
[17]
  viability, T/C: 101%
[18]
  viability, T/C: 98.4%
[19]
  viability, T/C: 107%
[20]
  viability, T/C: 121%
[21]
  viability, T/C: 94.9%
[22]
  viability, T/C: 95.9%
[23]
  viability, T/C: 111%
[24]
  viability, T/C: 97.9%
[25]
  viability, T/C: 108%
[26]
  viability, T/C: 112%
[27]
  viability, T/C: 84.1%
[28]
  viability, T/C: 104%
[29]
  viability, T/C: 119%
[30]
  viability, T/C: 95.8%
[31]
  viability, T/C: 101%
[32]
  viability, T/C: 108%
[33]
  viability, T/C: 109%
[34]
  viability, T/C: 106%
[35]
  viability, T/C: 110%
[36]
  viability, T/C: 97.1%

## COc1cc(C2c3cc4c(cc3C(OC3OC5COC(C)OC5C(O)C3O)C3COC(=O)C23)OCO4)cc(OC)c1O (stereo not given) + Cc1cccc(N(C)C(=O)C2C(O)CCN2c2nc(C)cc(C(F)(F)F)c2C#N)c1
Second compound 0.0316 µM
  IC50: > 10 µM
Second compound 0.1 µM
  IC50: > 10 µM
Second compound 0.316 µM
  IC50: > 10 µM
Second compound 1 µM
  IC50: > 10 µM
Second compound 3.16 µM
  IC50: > 10 µM
Second compound 10 µM
  IC50: > 10 µM
[1]
  viability, T/C: 100%
[2]
  viability, T/C: 99.4%
[3]
  viability, T/C: 95.5%
[4]
  viability, T/C: 97.7%
[5]
  viability, T/C: 75.2%
[6]
  viability, T/C: 68.9%
[7]
  viability, T/C: 96.3%
[8]
  viability, T/C: 109%
[9]
  viability, T/C: 94.6%
[10]
  viability, T/C: 102%
[11]
  viability, T/C: 75.1%
[12]
  viability, T/C: 61.9%
[13]
  viability, T/C: 99.8%
[14]
  viability, T/C: 102%
[15]
  viability, T/C: 96.3%
[16]
  viability, T/C: 97.2%
[17]
  viability, T/C: 85%
[18]
  viability, T/C: 52.8%
[19]
  viability, T/C: 103%
[20]
  viability, T/C: 105%
[21]
  viability, T/C: 104%
[22]
  viability, T/C: 110%
[23]
  viability, T/C: 82%
[24]
  viability, T/C: 51.2%
[25]
  viability, T/C: 89.5%
[26]
  viability, T/C: 86.2%
[27]
  viability, T/C: 102%
[28]
  viability, T/C: 93.3%
[29]
  viability, T/C: 77.3%
[30]
  viability, T/C: 69.4%
[31]
  viability, T/C: 112%
[32]
  viability, T/C: 91.3%
[33]
  viability, T/C: 106%
[34]
  viability, T/C: 91.9%
[35]
  viability, T/C: 76.3%
[36]
  viability, T/C: 64.6%

## O=C(Nc1ccc(O)c(NS(=O)(=O)c2ccc(F)cc2)c1)c1ccc(-c2ccccc2)cc1 + Cc1cccc(N(C)C(=O)C2C(O)CCN2c2nc(C)cc(C(F)(F)F)c2C#N)c1
Second compound 0.0316 µM
  IC50: > 10 µM
Second compound 0.1 µM
  IC50: > 10 µM
Second compound 0.316 µM
  IC50: > 10 µM
Second compound 1 µM
  IC50: > 10 µM
Second compound 3.16 µM
  IC50: > 10 µM
Second compound 10 µM
  IC50: > 10 µM
[1]
  viability, T/C: 105%
[2]
  viability, T/C: 105%
[3]
  viability, T/C: 99.4%
[4]
  viability, T/C: 100%
[5]
  viability, T/C: 101%
[6]
  viability, T/C: 72.7%
[7]
  viability, T/C: 107%
[8]
  viability, T/C: 99.4%
[9]
  viability, T/C: 93.9%
[10]
  viability, T/C: 103%
[11]
  viability, T/C: 91%
[12]
  viability, T/C: 98.1%
[13]
  viability, T/C: 105%
[14]
  viability, T/C: 91.9%
[15]
  viability, T/C: 111%
[16]
  viability, T/C: 103%
[17]
  viability, T/C: 97.5%
[18]
  viability, T/C: 92.5%
[19]
  viability, T/C: 93.7%
[20]
  viability, T/C: 84.4%
[21]
  viability, T/C: 94.9%
[22]
  viability, T/C: 87.3%
[23]
  viability, T/C: 111%
[24]
  viability, T/C: 98.6%
[25]
  viability, T/C: 97.2%
[26]
  viability, T/C: 106%
[27]
  viability, T/C: 93%
[28]
  viability, T/C: 80.6%
[29]
  viability, T/C: 106%
[30]
  viability, T/C: 91.7%
[31]
  viability, T/C: 96.8%
[32]
  viability, T/C: 101%
[33]
  viability, T/C: 108%
[34]
  viability, T/C: 93%
[35]
  viability, T/C: 89.5%
[36]
  viability, T/C: 105%
